Experimental data published in patent publication US8471005B2 (Cephalon, Inc., priority 2008, dated 2013).

Assays:
[1] = molecular target: T1, JAK2 (Homo sapiens, UniProt O60674); assay: Recombinant Human JAK2 Kinase Assay (TRF); type: biochemical; conditions: JAK2 Kinase Inhibition; read-out: JAK2 Potency
T1 construct: host or cells: baculovirus expression system
Method in brief: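 Kinase activity of baculovirus-expressed JAK2 is followed on a surface-immobilised biotinylated peptide, with the reaction run for 20 min at room temperature in buffer containing 0.2 μM ATP and manganese. Phosphorylation is read with Eu-N1 PY100 antibody.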

[2] = molecular target: T2, ALK (Homo sapiens, UniProt Q9UM73); assay: ALK Kinase Assay (ELISA/TRF, PLC-γ substrate); type: biochemical; conditions: ALK Kinase Inhibition; read-out: ALK Potency
T2 construct: host or cells: baculovirus expression system
T2 sequence (Q9UM73 19-1620): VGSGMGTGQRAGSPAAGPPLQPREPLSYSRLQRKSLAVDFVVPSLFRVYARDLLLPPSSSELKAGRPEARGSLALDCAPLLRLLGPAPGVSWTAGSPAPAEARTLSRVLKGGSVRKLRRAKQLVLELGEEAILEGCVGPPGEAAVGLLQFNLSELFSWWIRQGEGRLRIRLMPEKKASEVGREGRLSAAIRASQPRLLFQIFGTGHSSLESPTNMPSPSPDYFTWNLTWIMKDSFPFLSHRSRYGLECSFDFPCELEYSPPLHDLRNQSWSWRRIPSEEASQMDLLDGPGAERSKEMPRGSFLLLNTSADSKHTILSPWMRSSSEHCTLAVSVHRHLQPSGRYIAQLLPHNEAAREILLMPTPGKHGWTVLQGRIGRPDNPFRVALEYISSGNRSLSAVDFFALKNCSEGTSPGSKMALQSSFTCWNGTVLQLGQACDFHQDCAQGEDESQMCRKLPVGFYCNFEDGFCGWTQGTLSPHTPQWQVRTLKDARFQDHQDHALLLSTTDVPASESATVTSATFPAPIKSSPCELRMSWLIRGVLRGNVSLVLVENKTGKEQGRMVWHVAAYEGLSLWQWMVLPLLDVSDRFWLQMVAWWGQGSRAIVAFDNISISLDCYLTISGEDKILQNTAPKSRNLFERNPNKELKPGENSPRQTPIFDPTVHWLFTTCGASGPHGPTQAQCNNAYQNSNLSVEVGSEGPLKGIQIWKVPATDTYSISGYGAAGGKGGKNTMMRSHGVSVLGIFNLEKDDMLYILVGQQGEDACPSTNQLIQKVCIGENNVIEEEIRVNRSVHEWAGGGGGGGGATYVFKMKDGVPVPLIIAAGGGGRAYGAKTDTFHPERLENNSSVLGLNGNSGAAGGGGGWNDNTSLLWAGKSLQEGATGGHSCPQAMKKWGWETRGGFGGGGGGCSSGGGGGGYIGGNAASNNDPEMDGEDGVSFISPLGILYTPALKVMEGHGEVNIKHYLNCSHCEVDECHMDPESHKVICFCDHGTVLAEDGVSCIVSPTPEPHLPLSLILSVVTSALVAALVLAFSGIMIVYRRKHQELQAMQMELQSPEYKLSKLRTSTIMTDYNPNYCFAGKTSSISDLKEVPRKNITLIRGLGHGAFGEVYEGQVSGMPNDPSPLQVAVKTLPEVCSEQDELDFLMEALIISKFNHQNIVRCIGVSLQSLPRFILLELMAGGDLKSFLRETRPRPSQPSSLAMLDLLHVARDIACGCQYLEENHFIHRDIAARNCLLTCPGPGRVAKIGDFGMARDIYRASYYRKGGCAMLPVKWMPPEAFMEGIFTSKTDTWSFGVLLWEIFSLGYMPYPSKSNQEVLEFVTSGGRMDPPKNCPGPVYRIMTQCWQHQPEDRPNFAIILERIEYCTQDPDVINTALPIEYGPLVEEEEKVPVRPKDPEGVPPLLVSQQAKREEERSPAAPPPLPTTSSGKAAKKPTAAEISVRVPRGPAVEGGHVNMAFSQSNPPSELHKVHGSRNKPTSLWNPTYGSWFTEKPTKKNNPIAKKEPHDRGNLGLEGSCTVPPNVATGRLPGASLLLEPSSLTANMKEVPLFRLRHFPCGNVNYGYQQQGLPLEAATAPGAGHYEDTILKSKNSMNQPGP
Method in brief: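 First, plates are coated with substrate (phospholipase C-γ, 10 μg/mL, TBS). Next, 30 ng/ml ALK initiates phosphorylation for 15 min at 37° C. Then Eu-N1 PT66 antibody is added for detection, and a nonlinear dose-response fit of percent inhibition yields IC50.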

T1 sequence (O60674 whole entry): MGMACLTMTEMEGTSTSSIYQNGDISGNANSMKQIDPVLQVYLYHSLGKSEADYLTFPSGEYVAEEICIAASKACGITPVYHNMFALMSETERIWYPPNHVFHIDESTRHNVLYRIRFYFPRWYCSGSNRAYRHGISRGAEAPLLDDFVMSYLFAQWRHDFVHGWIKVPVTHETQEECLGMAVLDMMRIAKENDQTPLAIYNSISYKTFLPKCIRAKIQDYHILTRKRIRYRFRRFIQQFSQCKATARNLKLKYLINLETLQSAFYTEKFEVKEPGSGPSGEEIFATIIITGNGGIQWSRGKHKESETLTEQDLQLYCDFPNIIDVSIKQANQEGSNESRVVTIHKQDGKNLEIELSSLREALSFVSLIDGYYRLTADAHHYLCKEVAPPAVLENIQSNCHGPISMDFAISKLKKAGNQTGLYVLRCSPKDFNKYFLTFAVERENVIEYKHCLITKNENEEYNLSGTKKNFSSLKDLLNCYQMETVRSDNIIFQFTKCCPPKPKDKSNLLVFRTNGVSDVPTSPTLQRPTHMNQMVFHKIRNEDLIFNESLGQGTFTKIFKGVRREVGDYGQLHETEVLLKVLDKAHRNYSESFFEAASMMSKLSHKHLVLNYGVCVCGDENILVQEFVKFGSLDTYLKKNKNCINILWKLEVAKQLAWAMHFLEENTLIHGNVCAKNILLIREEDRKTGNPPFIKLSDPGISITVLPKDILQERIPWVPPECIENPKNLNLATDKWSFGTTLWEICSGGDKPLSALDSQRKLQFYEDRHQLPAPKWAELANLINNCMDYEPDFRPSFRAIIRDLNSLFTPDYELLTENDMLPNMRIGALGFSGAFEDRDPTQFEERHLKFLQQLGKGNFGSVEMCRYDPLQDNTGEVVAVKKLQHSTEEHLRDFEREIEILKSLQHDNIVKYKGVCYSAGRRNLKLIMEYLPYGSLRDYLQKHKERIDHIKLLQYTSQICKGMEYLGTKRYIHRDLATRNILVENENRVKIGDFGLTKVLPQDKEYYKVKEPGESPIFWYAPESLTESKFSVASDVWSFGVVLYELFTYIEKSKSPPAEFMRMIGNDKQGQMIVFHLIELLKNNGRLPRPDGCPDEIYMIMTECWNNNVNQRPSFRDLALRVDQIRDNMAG

Row | SMILES | IC50 [1] [nM] | IC50 [2] [nM]
1 | COc1ccc(Cl)cc1-c1ccc2cnc(Nc3cc(OC)c(OC)c(OC)c3)nn12 [Example 141, [7-(5-Chloro-2-methoxy-phenyl)-pyrrolo[2,1-f][1,2,4]triazin-2-yl]-(3,4,5-trimethoxy-phenyl)-amine] | < 100 | 100 to 1000
2 | COc1ccccc1-c1ccc2cnc(Nc3cc(OC)c(OC)c(OC)c3)nn12 [Example 142, [7-(2-Methoxy-phenyl)-pyrrolo[2,1-f][1,2,4]triazin-2-yl]-(3,4,5-trimethoxy-phenyl)-amine] | < 100 | 100 to 1000
3 | COc1cc(Nc2ncc3ccc(-c4cccc(Cl)c4)n3n2)cc(OC)c1OC [Example 143, [7-(3-Chloro-phenyl)-pyrrolo[2,1-f][1,2,4]triazin-2-yl]-(3,4,5-trimethoxy-phenyl)-amine] | < 100 | 100 to 1000
4 | COc1cccc(Nc2ncc3ccc(-c4cc(Cl)ccc4OC)n3n2)c1 [Example 144, [7-(5-Chloro-2-methoxy-phenyl)-pyrrolo[2,1-f][1,2,4]triazin-2-yl]-(3-methoxy-phenyl)-amine] | < 100 | 1000 to 10000
5 | COc1cccc(Nc2ncc3ccc(-c4ccccc4OC)n3n2)c1 [Example 145, (3-Methoxy-phenyl)-[7-(2-methoxy-phenyl)-pyrrolo[2,1-f][1,2,4]triazin-2-yl]-amine] | < 100 | 1000 to 10000
6 | COc1cccc(Nc2ncc3ccc(-c4cccc(Cl)c4)n3n2)c1 [Example 146, [7-(3-Chloro-phenyl)-pyrrolo[2,1-f][1,2,4]triazin-2-yl]-(3-methoxy-phenyl)-amine] | < 100 | > 10000
7 | Clc1cccc(-c2ccc3cnc(Nc4cccc(N5CCOCC5)c4)nn23)c1 [Example 148, [7-(3-Chloro-phenyl)-pyrrolo[2,1-f][1,2,4]triazin-2-yl]-(3-morpholin-4-yl-phenyl)-amine] | < 100 | 1000 to 10000
8 | COc1ccccc1-c1ccc2cnc(Nc3ccc4c(c3)OCO4)nn12 [Example 149, 1,3-Benzodioxol-5-yl-[7-(2-methoxy-phenyl)-pyrrolo[2,1-f][1,2,4]triazin-2-yl]-amine] | < 100 | 100 to 1000
9 | Clc1cccc(-c2ccc3cnc(Nc4ccc5c(c4)OCO5)nn23)c1 [Example 150, 1,3-Benzodioxol-5-yl-[7-(3-chloro-phenyl)-pyrrolo[2,1-f][1,2,4]triazin-2-yl]-amine] | < 100 | > 10000
10 | COc1ccc(Nc2ncc3ccc(-c4cc(Cl)ccc4OC)n3n2)cc1OC [Example 151, [7-(5-Chloro-2-methoxy-phenyl)-pyrrolo[2,1-f][1,2,4]triazin-2-yl]-(3,4-dimethoxy-phenyl)-amine] | < 100 | 100 to 1000
11 | COc1ccc(Nc2ncc3ccc(-c4cccc(Cl)c4)n3n2)cc1OC [Example 152, [7-(3-Chloro-phenyl)-pyrrolo[2,1-f][1,2,4]triazin-2-yl]-(3,4-dimethoxy-phenyl)-amine] | < 100 | 1000 to 10000
12 | COc1ccc(Nc2ncc3ccc(-c4cc(Cl)ccc4OC)n3n2)cc1 [Example 153, [7-(5-Chloro-2-methoxy-phenyl)-pyrrolo[2,1-f][1,2,4]triazin-2-yl]-(4-methoxy-phenyl)-amine] | < 100 | > 10000
13 | COc1ccc(Nc2ncc3ccc(-c4cccc(Cl)c4)n3n2)cc1 [Example 155, [7-(3-Chloro-phenyl)-pyrrolo[2,1-f][1,2,4]triazin-2-yl]-(4-methoxy-phenyl)-amine] | < 100 | > 10000
14 | COc1cc(Nc2ncc3ccc(-c4cccc(Cl)c4)n3n2)cc(OC)c1 [Example 156, [7-(3-Chloro-phenyl)-pyrrolo[2,1-f][1,2,4]triazin-2-yl]-(3,5-dimethoxy-phenyl)-amine] | < 100 | > 10000
15 | COc1cc(Nc2ncc3ccc(-c4cc(Cl)ccc4OC)n3n2)cc(OC)c1 [Example 157, [7-(5-Chloro-2-methoxy-phenyl)-pyrrolo[2,1-f][1,2,4]triazin-2-yl]-(3,5-dimethoxy-phenyl)-amine] | < 100 | 100 to 1000
16 | COc1cc(Nc2ncc3ccc(-c4ccccc4OC)n3n2)cc(OC)c1 [Example 158, (3,5-Dimethoxy-phenyl)-[7-(2-methoxy-phenyl)-pyrrolo[2,1-f][1,2,4]triazin-2-yl]-amine] | < 100 | 100 to 1000
17 | CN(C)c1cccc(Nc2ncc3ccc(-c4cccc(Cl)c4)n3n2)c1 [Example 159, N-[7-(3-Chloro-phenyl)-pyrrolo[2,1-f][1,2,4]triazin-2-yl]-N′,N′-dimethyl-benzene-1,3-diamine] | 1000 to 10000 | > 10000
18 | CN1CCN(c2cccc(Nc3ncc4ccc(-c5cccc(Cl)c5)n4n3)c2)CC1 [Example 161, [7-(3-Chloro-phenyl)-pyrrolo[2,1-f][1,2,4]triazin-2-yl]-[3-(4-methyl-piperazin-1-yl)-phenyl]-amine] | < 100 | 100 to 1000

Row | SMILES | IC50 [1] [nM] | IC50 [2] [nM]
19 | COc1cc(Nc2ncc3ccc(-c4ccc(S(C)(=O)=O)cc4)n3n2)cc(OC)c1OC [Example 162, [7-(4-Methanesulfonyl-phenyl)-pyrrolo[2,1-f][1,2,4]triazin-2-yl]-(3,4,5-trimethoxy-phenyl)-amine] | < 100 | 100 to 1000
20 | CS(=O)(=O)c1ccc(-c2ccc3cnc(Nc4cccc(N5CCOCC5)c4)nn23)cc1 [Example 163, [7-(4-Methanesulfonyl-phenyl)-pyrrolo[2,1-f][1,2,4]triazin-2-yl]-(3-morpholin-4-yl-phenyl)-amine] | < 100 | 1000 to 10000
21 | COc1ccccc1-c1ccc2cnc(Nc3cccc(C(N)=O)c3)nn12 [Example 164, 3-[7-(2-Methoxy-phenyl)-pyrrolo[2,1-f][1,2,4]triazin-2-ylamino]-benzamide] | < 100 | 100 to 1000
22 | NC(=O)c1cccc(Nc2ncc3ccc(-c4cccc(Cl)c4)n3n2)c1 [Example 165, 3-[7-(3-Chloro-phenyl)-pyrrolo[2,1-f][1,2,4]triazin-2-ylamino]-benzamide] | < 100 | 1000 to 10000
23 | COc1ccc(Cl)cc1-c1ccc2cnc(Nc3cccc(C(N)=O)c3)nn12 [Example 166, 3-[7-(5-Chloro-2-methoxy-phenyl)-pyrrolo[2,1-f][1,2,4]triazin-2-ylamino]-benzamide] | < 100 | 1000 to 10000
24 | Clc1cccc(-c2ccc3cnc(Nc4ccc(N5CCCC5)cc4)nn23)c1 [Example 167, [7-(3-Chloro-phenyl)-pyrrolo[2,1-f][1,2,4]triazin-2-yl]-(4-pyrrolidin-1-yl-phenyl)-amine] | < 100 | 1000 to 10000
25 | COc1ccc(Cl)cc1-c1ccc2cnc(Nc3ccc(N4CCCC4)cc3)nn12 [Example 168, [7-(5-Chloro-2-methoxy-phenyl)-pyrrolo[2,1-f][1,2,4]triazin-2-yl]-(4-pyrrolidin-1-yl-phenyl)-amine] | < 100 | 1000 to 10000
26 | COc1ccccc1-c1ccc2cnc(Nc3ccc(N4CCCC4)cc3)nn12 [Example 169, [7-(2-Methoxy-phenyl)-pyrrolo[2,1-f][1,2,4]triazin-2-yl]-(4-pyrrolidin-1-yl-phenyl)-amine] | < 100 | 100 to 1000
27 | COc1ccccc1-c1ccc2cnc(Nc3ccc4[nH]ccc4c3)nn12 [Example 170, (1H-Indol-5-yl)-[7-(2-methoxy-phenyl)-pyrrolo[2,1-f][1,2,4]triazin-2-yl]-amine] | < 100 | 1000 to 10000
28 | COc1ccc(Cl)cc1-c1ccc2cnc(Nc3ccc4[nH]ccc4c3)nn12 [Example 171, [7-(5-Chloro-2-methoxy-phenyl)-pyrrolo[2,1-f][1,2,4]triazin-2-yl]-(1H-indol-5-yl)-amine] | < 100 | 100 to 1000
29 | COc1ccccc1-c1ccc2cnc(Nc3ccc4ncccc4c3)nn12 [Example 172, [7-(2-Methoxy-phenyl)-pyrrolo[2,1-f][1,2,4]triazin-2-yl]-quinolin-6-yl-amine] | < 100 | 1000 to 10000
30 | COc1ccc(Cl)cc1-c1ccc2cnc(Nc3ccc4ncccc4c3)nn12 [Example 173, [7-(5-Chloro-2-methoxy-phenyl)-pyrrolo[2,1-f][1,2,4]triazin-2-yl]-quinolin-6-yl-amine] | < 100 | 100 to 1000
31 | c1cc(Nc2ncc3cccn3n2)cc(N2CCOCC2)c1 [Example 174, (3-Morpholin-4-yl-phenyl)-pyrrolo[2,1-f][1,2,4]triazin-2-yl-amine] | 100 to 1000 | > 10000
32 | Fc1cccc(-c2ccc3cnc(Nc4cccc(N5CCOCC5)c4)nn23)c1 [Example 175, [7-(3-Fluoro-phenyl)-pyrrolo[2,1-f][1,2,4]triazin-2-yl]-(3-morpholin-4-yl-phenyl)-amine] | < 100 | 100 to 1000
33 | Clc1cccc(-c2ccc3cnc(Nc4ccc5[nH]ccc5c4)nn23)c1 [Example 176, [7-(3-Chloro-phenyl)-pyrrolo[2,1-f][1,2,4]triazin-2-yl]-(1H-indol-5-yl)-amine] | < 100 | > 10000
34 | Clc1cccc(-c2ccc3cnc(Nc4ccc5ncccc5c4)nn23)c1 [Example 177, [7-(3-Chloro-phenyl)-pyrrolo[2,1-f][1,2,4]triazin-2-yl]-quinolin-6-yl-amine] | < 100 | 100 to 1000
35 | COc1ccccc1-c1ccc2cnc(Nc3cccc(N4CCN(CCO)CC4)c3)nn12 [Example 178, 2-(4-{3-[7-(2-Methoxy-phenyl)-pyrrolo[2,1-f][1,2,4]triazin-2-ylamino]-phenyl}-piperazin-1-yl)-ethanol] | < 100 | < 100
